Test [1] has as its target T1, TRKB-ECD-His (extracellular domain of TRKB) (Homo sapiens, UniProt Q16620).
T1 construct: extracellular domain of TRKB (TRKB-ECD) (residues 32–429, XP_016870240); Saccharomyces cerevisiae α-factor secretion signal (N, cleaved yes); made in house; host or cells: Pichia pastoris
Kind of test: Tryptophan fluorescence quenching assay. The note with it: TRKB-ECD-His 50 nM in PBS; excitation 295 nm, emission 330 nm; compounds 0–1000 nM; read-out: TRKB-ECD binding affinity (KD). The text has this: The cDNA fragment containing the full-length extracellular domain of TRKB (TRKB-ECD) (residues 32–429, XP_016870240) was amplified from pDONR223-NTRK2 plasmid (Addgene, Watertown, MA, USA) using forward primer 5′-ctcgagaaaagagaggctgaagctTGTCCCACGTCCTGAAATG (XhoI site and Kex2 cleavage of the signal sequence in lowercase letters) and reverse primer 5′-gtcgac[…] (SalI site in lowercase letters). After cloning and sequencing, the TRKB-ECD fragment was excised with XhoI and SalI and subcloned into Pichia expression vector pGAPZα A (Invitrogen). The AvrII-linearized plasmid was then transformed into Pichia pastoris, and stable transformants selected and cultured at 30 °C for 4 days for constitutive expression of recombinant His-tagged TRKB-ECD. The secreted TRKB-ECD-His in cultured medium was purified using Ni-NTA His•Bind resins (Novagen, Madison, WI 53719, USA) according to the supplier’s instructions. Protein purity was examined by Coomassie blue staining of SDS-polyacrylamide gel as well as immunoblotting using anti-His (1:2000; Acris, Herford, Germany) and anti-TRKB (1:1000; Cell Signaling) antibodies.
The interaction between TRKB-ECD-His and LM-031, LMDS-1 or LMDS-2 was determined by tryptophan fluorescence titration. 7,8-DHF (Sigma-Aldrich) was included as a positive control. Tryptophan fluorescence spectra of TRKB-ECD-His (50 nM in PBS) were obtained before and after titration with different concentrations of test compounds (0–1000 nM). The fluorescent quenching was conducted in a cuvette with a 1 cm path length cell by an F-7000 fluorescence spectrophotometer (Hitachi, Tokyo, Japan) at room temperature. The intrinsic fluorescence spectra of TRKB were recorded with excitation wavelength set at 295 nm and emission wavelength in the range 300–400 nm. The dissociation constant (KD) of 7,8-DHF, LM-031, LMDS-1 and LMDS-2 to TRKB was determined by fitting the normalized fluorescence intensity at 330 nm under different concentrations of test compounds using the equation derived from Liu et al.:KD = [P]T (f − 1) + [D]T (1/f − 1), where f is the fractional change, and [P]Tand [D]Tare the total concentration of TRKB-ECD-His protein and test compound, respectively.

The nature of test [2]: DPPH free radical-scavenging assay. Conditions: compounds tested 10–80 μM; DPPH 100 µM; linear interpolation. How it is done: The potential free radical-scavenging activity of test compounds was assayed using stable free radical 1,1-diphenyl-2-picrylhydrazyl (DPPH) (Sigma-Aldrich). Briefly, kaempferol, LM-031 or LMDS-1 to -4 (10–80 µM) was added to DPPH (100 µM in 99% ethanol). The solution was vortexed for 15 s, left for 30 min at room temperature, the mixture was transferred to a 96-well UV-transparent microplate and the absorbance at 517 nm was measured using a Multiskan^TM GO microplate spectrophotometer (Thermo Fisher Scientific, Waltham, MA, USA). Radical-scavenging activity was calculated using the equation: 1 − (absorbance of sample/absorbance of control) × 100%, and EC50 estimated using the linear interpolation method.

For test [3], the target named is T2, E. coli-expressed ΔK280 tauRD protein (Homo sapiens, UniProt P10636, DEL597-597).
T2 construct: assessed by using E. coli-expressed ΔK280 tauRD protein; made in house; host or cells: E. coli
Kind of test: Anti-ΔK280 tauRD aggregation assay (thioflavin T). It is filed as biochemical. The note with it: compounds tested 1–10 μM, 20 μM protein, 48 h, linear interpolation, read-out: EC50 for ΔK280 tauRD aggregation inhibition. Here is the method: Thioflavin T is widely used to visualize and quantify the presence of misfolded amyloid protein aggregates in vitro [74]. The tau aggregation inhibiting potential of Congo red, LM-031 and LMDS-1 to -4 was assessed by using E. coli-expressed ΔK280 tauRD protein [28]. Briefly, purified ΔK280 tauRD protein (20 μM) was incubated with Congo red or coumarin compounds (1–10 μM) in 150 mM NaCl and 20 mM Tris-HCl pH8.0, at 37 °C with shaking for 48 h to form aggregates. Then, thioflavin T (final 5 μM; Acros Organics, Geel, Belgium) was added and incubated for 25 min at room temperature. Fluorescence intensity of samples was recorded at excitation/emission wavelengths of 420/485 nm using an FLx800 microplate reader (BioTek, Winooski, VT, USA). The half maximal effective concentration (EC50) values were calculated by using a linear interpolation method.

Test [4] in a line: Oxygen radical antioxidant capacity (ORAC) assay. The note with it: compound at 100 μM. Here is the method:
In addition, an oxygen radical antioxidant capacity (ORAC) assay was performed using an OxiSelect™ kit according to the manufacturer’s instruction (Cell Biolabs, San Diego, CA, USA). Briefly, Trolox standards (2.5–50 μM) and samples (4–100 μM) were diluted with 50% acetone. Blank (50% acetone), standards and samples were mixed with fluorescein and incubated at 37 °C for 30 min. Following the free radical initiator 2,2′-azobis(2-methylpropionamidine) dihydrochloride (AAPH), the produced peroxyl radicals (ROO•) quench the fluorescent probe over time. Antioxidants present in the assay block the peroxyl radical oxidation of the fluorescent probe. The course of the reaction was recorded for 60 min, with one measurement every five minutes using a BioTek FLx800 microplate reader. The excitation and emission wavelengths were set at 480 nm and 520 nm, respectively. To quantify the oxygen radical antioxidant activity in a sample, the area under the curve (AUC) for blank, standard and samples was calculated. After subtraction of the blank, the equivalent Trolox concentrations of samples were expressed based on the Trolox standard curve.

Each structure is given as a SMILES string.

T2 sequence (P10636 with tags, fused parts or gaps DEL597-597): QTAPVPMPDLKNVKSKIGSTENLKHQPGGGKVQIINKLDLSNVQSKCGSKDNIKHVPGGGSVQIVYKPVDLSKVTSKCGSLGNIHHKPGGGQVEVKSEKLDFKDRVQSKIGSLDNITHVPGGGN
T1 sequence (Q16620 32-429): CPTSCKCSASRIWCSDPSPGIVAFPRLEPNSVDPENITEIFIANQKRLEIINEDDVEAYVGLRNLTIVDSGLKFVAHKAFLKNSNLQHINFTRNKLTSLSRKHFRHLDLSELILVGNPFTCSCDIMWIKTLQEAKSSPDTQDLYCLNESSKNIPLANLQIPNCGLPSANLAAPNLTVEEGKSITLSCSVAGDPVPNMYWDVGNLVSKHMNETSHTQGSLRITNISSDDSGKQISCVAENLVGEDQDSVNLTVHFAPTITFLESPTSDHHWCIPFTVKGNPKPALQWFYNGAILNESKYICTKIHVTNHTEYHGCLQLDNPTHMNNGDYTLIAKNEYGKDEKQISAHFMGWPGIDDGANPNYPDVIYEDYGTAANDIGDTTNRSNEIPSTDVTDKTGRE

Turning to `O=C(c1ccccc1)c1cc2c(O)cccc2oc1=O` [LM-031, 3-benzoyl-5-hydroxychromen-2-one], the dissociation constant Kd in test [1] came to 0.0127 ± 0.0028 µM. Also, the EC50 in test [2] stood at 93 µM; in test [3], 36 µM. Further, in test [4], the “Oxygen radical absorbance capacity, activity equivalent to Trolox” value (from here on “Oxygen radical absorbance capacity”) is given as 51 μM Trolox.
For the molecule `CCOc1ccc2cc(C(=O)c3ccccc3)c(=O)oc2c1` [LMDS-1], in test [1], the Kd is 0.008 ± 0.017 µM. The EC50 turned out to be 122 µM in test [2] and 84 µM in test [3]. Moreover, in test [4], the “Oxygen radical absorbance capacity” value is on record as 10 μM Trolox.
`O=C(c1ccccc1)c1cc2ccc(O)cc2oc1=O` [LMDS-2]: the equilibrium dissociation constant (Kd) in test [1] turned out to be 0.0065 ± 0.0066 µM. The results for the EC50 in test [2] and in test [3] were 132 µM and 8 µM, respectively. The “Oxygen radical absorbance capacity” value in test [4] is 15 μM Trolox.

Source of the values: article PMC9654711, “Neuroprotective Action of Coumarin Derivatives through Activation of TRKB-CREB-BDNF Pathway and Reduction of Caspase Activity in Neuronal Cells Expressing Pro-Aggregated Tau Protein” (International Journal of Molecular Sciences, 2022).
